Experimental data reported in patent publication US10654854B2 (INTRA-CELLULAR THERAPIES, INC., priority 2016, dated 2020).
Structures can show the parent of a compound that is named as a salt.

What was measured:
[1] = Dynamic Vapour Sorption (DVS); format: physicochemical; conditions: for DVS total mass uptake: at 95 RH %; for hygroscopicity (assessment from DVS): from total mass uptake at 95 RH %; for DVS Hygroscopicity (%): scale-up synthesis batch
Experimental: Dynamic Vapour Sorption (DVS): The Dynamic Vapour Sorption studies are performed using a Surface Measurement Systems Ltd. DVS-1 No Video, equipment #2126. The sample is loaded into a balance pan, typically 20-30 mg, and equilibrated at 0% RH. After the material was dried, the RH is increased with 10% per step for 1 hour per increment, ending at 95% RH. After completion of the sorption cycle, the sample was dried using the same method. The software used for data collection is DVSWin v3.01 No Video. Data analysis is performed using DVS Standard Analysis Suite v6.3.0 (Standard).

[2] = hygroscopicity and stability of salt forms (salt screen); format: physicochemical; conditions: salt form
Experimental: In an effort to find new salts and polymorphs of ITI-007, an extensive salt screen was undertaken. […] Eventually, a toluenesulfonic acid addition salt (tosylate) was prepared, as described in WO 2009/114181, but no other stable salts were found. Finally, a major salt screen was carried out, wherein the free base compound was studied in different solvent systems and under different conditions, and then systematically screened using a selection of over 100 acids under different conditions and with different solvent, co-solvent and anti-solvent systems, to identify possible salt forms. Following extensive screening and experimentation, the following novel salts were discovered, characterized, and found to be reproducible and stable: oxalate, 4-aminosalicylate, and cyclamate.
(§1) Solubility of free base in various solvents is evaluated, and based on the results of the solubility range, suitable solvents are selected for the salt screen. The salt screen is divided into seven separate screens, using 90 different counter ions, six different solvents, and including four different crystallization methods, slurry experiments, cooling crystallization, evaporation and precipitation experiments. The counterions are selected based upon availability and potential suitability to form pharmaceutically acceptable acid addition salts. They include the class I, II and III acids identified in Stahl P. H., Wermuch C. G. (editors), Handbook of Pharmaceutical Salts, IUPAC (2008).

[3] = solubility of free base in water and organic solvents; format: physicochemical; conditions: free base form; in water and in many organic solvents
Experimental: as §1

H1 histaminergic = H1 histaminergic (Homo sapiens, UniProt P35367); conditions: cited from earlier work
Chain of H1 histaminergic (P35367 whole entry): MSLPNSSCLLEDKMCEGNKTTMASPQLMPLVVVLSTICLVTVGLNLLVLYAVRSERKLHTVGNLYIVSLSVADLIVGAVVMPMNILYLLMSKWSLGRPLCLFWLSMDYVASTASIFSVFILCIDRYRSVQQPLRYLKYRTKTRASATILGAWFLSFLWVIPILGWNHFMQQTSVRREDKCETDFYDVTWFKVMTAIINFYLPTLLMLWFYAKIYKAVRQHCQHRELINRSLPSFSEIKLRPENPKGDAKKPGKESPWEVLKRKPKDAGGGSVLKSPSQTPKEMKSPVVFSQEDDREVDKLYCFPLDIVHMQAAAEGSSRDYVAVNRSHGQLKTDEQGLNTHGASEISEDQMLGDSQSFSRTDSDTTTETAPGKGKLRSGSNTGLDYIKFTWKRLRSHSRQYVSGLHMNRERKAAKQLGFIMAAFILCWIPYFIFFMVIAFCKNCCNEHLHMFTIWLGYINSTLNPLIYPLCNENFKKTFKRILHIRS

5-HT2C = biological target: T1, 5-HT2C (Homo sapiens, UniProt P28335); conditions: cited from earlier work
T1 sequence (P28335 33-458): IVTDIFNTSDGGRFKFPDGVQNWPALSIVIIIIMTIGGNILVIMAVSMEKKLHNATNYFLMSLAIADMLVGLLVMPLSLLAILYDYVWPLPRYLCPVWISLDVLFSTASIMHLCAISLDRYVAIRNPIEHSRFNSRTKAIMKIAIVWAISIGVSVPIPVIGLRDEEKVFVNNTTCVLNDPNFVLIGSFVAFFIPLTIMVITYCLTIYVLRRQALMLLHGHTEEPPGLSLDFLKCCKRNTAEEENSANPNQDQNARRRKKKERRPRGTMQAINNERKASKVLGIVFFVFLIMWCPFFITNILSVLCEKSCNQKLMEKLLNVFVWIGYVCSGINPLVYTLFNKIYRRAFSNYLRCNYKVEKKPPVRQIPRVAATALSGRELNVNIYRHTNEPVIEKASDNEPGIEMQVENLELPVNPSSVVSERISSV

muscarinic = conditions: cited from earlier work

Row | SMILES | DVS total mass uptake [1] [%] | hygroscopicity (assessment from DVS) [1] | DVS Hygroscopicity (%) [1] [%] | stability [2] | solubility [3] | binding to receptors associated with cognitive and metabolic side effects (H1 histaminergic) | binding to receptors associated with cognitive and metabolic side effects (5-HT2C) | binding to receptors associated with cognitive and metabolic side effects (muscarinic) | DVS Hygroscopicity (%) ([1]; listed as FP-212 cyclamate salt)
1 | CN1CCN2c3c(cccc31)[C@@H]1CN(CCCC(=O)c3ccc(F)cc3)CC[C@@H]12 [4-aminosalicylate salt, 1-(4-fluoro-phenyl)-4-((6bR,10aS)-3-methyl-2,3,6b,9,10,10a-hexahydro-1H,7H-pyrido[3′,4′:4,5]pyrrolo[1,2,3-de]quinoxalin-8-yl)-butan-1-one] | 5 | moderately hygroscopic | 5 | stable | – | – | – | – | –
2 | CN1CCN2c3c(cccc31)[C@@H]1CN(CCCC(=O)c3ccc(F)cc3)CC[C@@H]12 [ITI-007, 1-(4-fluoro-phenyl)-4-((6bR,10aS)-3-methyl-2,3,6b,9,10,10a-hexahydro-1H,7H-pyrido[3′,4′:4,5]pyrrolo[1,2,3-de]quinoxalin-8-yl)-butan-1-one] | – | – | – | – | poor solubility | negligible binding | negligible binding | negligible binding | –
3 | CN1CCN2c3c(cccc31)[C@@H]1CN(CCCC(=O)c3ccc(F)cc3)CC[C@@H]12 [cyclamate salt, 1-(4-fluoro-phenyl)-4-((6bR,10aS)-3-methyl-2,3,6b,9,10,10a-hexahydro-1H,7H-pyrido[3′,4′:4,5]pyrrolo[1,2,3-de]quinoxalin-8-yl)-butan-1-one] | 8 | somewhat hygroscopic | – | stable | – | – | – | – | 8
4 | CN1CCN2c3c(cccc31)[C@@H]1CN(CCCC(=O)c3ccc(F)cc3)CC[C@@H]12 [oxalate salt, 1-(4-fluoro-phenyl)-4-((6bR,10aS)-3-methyl-2,3,6b,9,10,10a-hexahydro-1H,7H-pyrido[3′,4′:4,5]pyrrolo[1,2,3-de]quinoxalin-8-yl)-butan-1-one] | 5 | moderately hygroscopic | 5 | stable | – | – | – | – | –
